{"source": "patent US20040202705A1", "about": "(priority 1999, published 2004)", "origin": "cited, not measured here", "conditions": "human, in vivo"}
{"molecule": "Nc1c2c(nc3ccccc13)CCCC2", "note": "[Tacrine]", "values": [{"measurement": "Patients with reversible hepatotoxicity", "value": "approximately 30%"}]}
